Measured values from patent US11492405B2, “Reducing systemic regulatory t cell levels or activity for treatment of disease and injury of the CNS” (Yeda Research and Development Co. Ltd, priority 2014, dated 2022).

How the values were obtained:
Foxp3+ Tregs = test: Conditional ablation of Treg by DTx, flow cytometry of blood and spleen; assay type: in vivo, mouse
Description: (§1) Mice were transcardially perfused with PBS, and tissues were treated as previously described (Baruch et al, 2013). Brains were dissected and the different brain regions were removed under a dissecting microscope (Stemi DV4; Zeiss) in PBS, and tissues were dissociated using the gentleMACS™ dissociator (Miltenyi Biotec). Choroid plexus tissues were isolated from the lateral, third and fourth ventricles of the brain, incubated at 37° C. for 45 min in PBS (with Ca^2+/Mg^2+) containing 400 U/ml collagenase type IV (Worthington Biochemical Corporation), and then manually homogenized by pipetting. Spleens were mashed with the plunger of a syringe and treated with ACK (ammonium chloride potassium) lysing buffer to remove erythrocytes. In all cases, samples were stained according to the manufacturers' protocols. All samples were filtered through a 70 μm nylon mesh, and blocked with anti-Fc CD16/32 (1:100; BD Biosciences). For intracellular staining of IFN-γ, the cells were incubated with […] (10 ng/ml; Sigma-Aldrich) and ionomycin (250 ng/ml; Sigma-Aldrich) for 6 h, and Brefeldin-A (10 μg/ml; Sigma-Aldrich) was added for the last 4 h. Intracellular labeling of cytokines was done with BD Cytofix/Cytoperm™ Plus fixation/permeabilization kit (cat. no. 555028). […] Cells were analyzed on an LSRII cytometer (BD Biosciences) using FlowJo software. […]

5XFAD AD-Tg mice [1] = test: Flow cytometry of splenocytes in 5XFAD AD-Tg mice; assay type: in vivo, mouse; details: weekly-GA, end of 1st week (two GA injections)
Description: as §1

5XFAD AD-Tg mice [2] = test: Morris water maze (MWM) in 5XFAD AD-Tg mice; assay type: in vivo, mouse; details: weekly-GA vs vehicle (PBS), AD-Tg mice at 6 m
Description: Mice were given three trials per day, for 4 consecutive days, to learn to find a hidden platform located 1.5 cm below the water surface in a pool (1.1 m in diameter). The water temperature was kept between 21-22° C. Water was made opaque with milk powder. Within the testing room, only distal visual shape and object cues were available to the mice to aid in location of the submerged platform. The escape latency, i.e., the time required to find and climb onto the platform, was recorded for up to 60 s. Each mouse was allowed to remain on the platform for 15 s and was then removed from the maze to its home cage. […] The inter-trial interval for each mouse was 10 min. On day 5, the platform was removed, and mice were given a single trial lasting 60 s without available escape. On days 6 and 7, the platform was placed in the quadrant opposite the original training quadrant, and the mouse was retrained for three sessions each day. Data were recorded using the EthoVision V7.1 automated tracking system (Noldus Information Technology). Statistical analysis was performed using analysis of variance (ANOVA) and the Bonferroni post-hoc test. All MWM testing was performed between 10 a.m. and 5 p.m. during the lights-off phase.

5XFAD AD-Tg mice [3] = test: Radial arm water maze (RAWM) in 5XFAD AD-Tg mice; assay type: in vivo, mouse; details: weekly-GA over 4 weeks
Description: The radial-arm water maze (RAWM) was used to test spatial learning and memory, as was previously described in detail (Alamed et al, 2006). Briefly, six stainless steel inserts were placed in the tank, forming six swim arms radiating from an open central area. The escape platform was located at the end of one arm (the goal arm), 1.5 cm below the water surface, in a pool 1.1 m in diameter. The water temperature was kept between 21-22° C. Water was made opaque with milk powder. Within the testing room, only distal visual shape and object cues were available to the mice to aid in location of the submerged platform. The goal arm location remained constant for a given mouse. On day 1, mice were trained for 15 trials (spaced over 3 h), with trials alternating between a visible and hidden platform, and the last 4 trails with hidden platform only. On day 2, mice were trained for 15 trials with the hidden platform. Entry into an incorrect arm, or failure to select an arm within 15 sec, was scored as an error. Spatial learning and memory were measured by counting the number of arm entry errors or the escape latency of the mice on each trial. Training data were analyzed as the mean errors or escape latency, for training blocks of three consecutive trials.

[4] = test system: APP/PS1 mouse model of AD; details: weekly administration regimen; cited from earlier work

Substance	depletion of GFP-expressing FoxP3+CD4+ Treg cells (Foxp3+ Tregs; blood and spleen, Foxp3.LuciDTR mice, DTx 8 ng/g i.p. daily for 4 days) [%]	depletion of Foxp3+ cells (Foxp3+ Tregs; splenocytes of AD-Tg/Foxp3-DTR+/− mice, 1 day after last of 4 daily i.p. DTx injections) [%]	splenocyte Foxp3+ Treg levels (5XFAD AD-Tg mice [1])	spatial learning/memory performance in acquisition, probe and reversal phases of the MWM (5XFAD AD-Tg mice [2])	time the improved cognitive performance lasted after the treatment (5XFAD AD-Tg mice [3]; 5XFAD AD-Tg mice)	cognitive performance (MWM, RAWM) (5XFAD AD-Tg mice [3]; MWM 1 week, RAWM 1 and 2 months after last injection)	effect in the APP/PS1 mouse model of AD [4]
Diphtheria toxin [DTx]	> 99	~99	–	–	–	–	–
Glatiramer acetate [GA]	–	–	reduced	better spatial learning/memory performance	up to 2 months	improved cognitive performance	therapeutic effect
